In series [1] the test system is bovine aortic endothelial cells (BAEC). The experiment in a line: Proliferation without growth factors (15% FBS). Type of series: cell-based. The procedure:
(§1) Cells were seeded in triplicate at a concentration of 6.0 × 10^5/ml, in 2 ml of complete medium in 6-well plates. […] […] Control wells were treated with 5 μl DMSO. Concentration ranges of test compounds and pre-incubation times were based on pilot studies. After 72 h, cells were washed in PBS, detached in 0.05%w/v trypsin in PBS, and counted on a Coulter counter (Coulter Electronics, Hialeah, FL) set to a threshold of 30 μm. Experiments were performed in triplicate and repeated at least twice.

Series [2] has as its system human dermal microvascular endothelial cells (HDMEC). Kind of series: Proliferation without growth factors (15% FBS). Type of series: cell-based. Here is the method:
as §1

Series [3] relates to HDMEC. Kind of series: EGF-induced proliferation. Type of series: cell-based, human. The note with it: EGF 75 ng/ml, 72 h, NS = inhibition less than 50%. Here is the method:
(§2) Cells were seeded in triplicate at a concentration of 6.0 × 10^5/ml, in 2 ml of complete medium in 6-well plates. […] Growth factors, FGF-2 (25 ng/ml), EGF (75 ng/ml) and VEGF (10 ng/ml) and test compounds at different concentration were added and cells incubated for a further 72 h. Control wells were treated with 5 μl DMSO. Concentration ranges of test compounds and pre-incubation times were based on pilot studies. After 72 h, cells were washed in PBS, detached in 0.05%w/v trypsin in PBS, and counted on a Coulter counter (Coulter Electronics, Hialeah, FL) set to a threshold of 30 μm. Experiments were performed in triplicate and repeated at least twice.

Series [4] deals with BAEC. The experiment in a line: FGF-2-induced proliferation. Type of series: cell-based, bovine. The note with it: Bos taurus, FGF-2 25 ng/ml, 72 h, NS = inhibition less than 50%. Here is the method: as §2
For series [5], the system named is HDMEC. Kind of series: FGF-2-induced proliferation. Type of series: cell-based. The note with it: Homo sapiens, FGF-2 25 ng/ml, 72 h. Here is the method:
as §2

For series [6], the system named is BAEC. The experiment in a line: FGF-2-induced chemotaxis, Boyden chamber assay. Type of series: cell-based, bovine. The note with it: Bos taurus, 6 h, FGF-2 25 ng/ml. The procedure:
(§3) The effect of compounds 1 and 2 on cell migration was examined in vitro using a modified Boyden chamber system with 8.0 μm pore polycarbonate filter inserts (TSL, UK). The filter was coated overnight with 0.1%w/v gelatine, and air-dried. Cells (1 × 10^5) were placed in the upper part of the filter and test compounds at different concentrations with and without growth factors were added to the lower part in SPM. Cells were incubated at 37°C for 6 h and the filter removed and the upper side containing non migrated cells wiped and rinsed. The filters were fixed (4% paraformaldehyde), and stained (Geimsa) and cell migration in duplicate wells was determined by counting cell numbers on the lower surface. Experiments were performed in triplicate and at least two times.

The test system of series [7] is HDMEC. Kind of series: FGF-2-induced chemotaxis, Boyden chamber assay. The note with it: Homo sapiens, 6 h, FGF-2 25 ng/ml. Type of series: cell-based. Here is the method:
as §3

Series [8] deals with HDMEC. The experiment in a line: FGF-2 invasion in Matrigel. Type of series: cell-based, human. The note with it: Homo sapiens, FGF-2 25 ng/ml.
In series [9] the test system is BAEC. The experiment in a line: Regression of established tubular networks. Type of series: cell-based, bovine. The note with it: Bos taurus, established FGF-2 tubular network, 24 h. The procedure: Tube regression under the influence of the test compounds was also investigated. Cell suspensions were mixed with Matrigel supplemented with FGF-2 (25 ng/ml) in 15% FCS as described above.

Series [10] deals with HDMEC. Kind of series: Toxicity: MTT and active caspase-3 assays. Type of series: cell-based, human. The procedure: Stilbene glycoside toxicity was determined using the MTT and active caspase-3 assays. BAECs or HDMECs (7.5 × 10^3) were seeded in a 96 well plate and incubated for 4 h to allow cell adhesion. The test compound or staurosporine (1 μM), an inducer of active caspase-3 and therefore of apoptosis was added to the wells. Control cells were treated with PBS and the plate was incubated at room temperature for 72 hours. MTT reagent (10 μl) was added followed by incubation at room temperature for 2–4 h. When a purple precipitate was visible, detergent reagent (100 μl) was added to the plates and incubated at room temperature for 2 h in the dark. Absorbance was measured at 570 nm using a microplate reader.
In the apoptosis assay, HDMECs or BAEC (4 × 10^4/ml) in complete medium were added to the chambers slide and allowed to adhere for 24 h. The test compound (X μM) or staurosporine (1 μM) were added to all wells except control (PBS) and incubated for 24 hours. Wells treated with staurosporine were immediately washed (PBS) and fixed (4% paraformaldehyde) when cell morphology became round (2–4 h). After washing and fixing, cells were permeablized (0.1% Triton X-100; 10 min), washed (× 5~5 min each), air dried and blocked with 1% BSA in 1:50 TBS-Tween for 1 h at room temperature. Cells were incubated with goat anti-active caspase-3 (R&D system, UK; 1% BSA in TBS-Tween) for 1 h. […]

In another series the test system is VEGF receptor. The experiment in a line: ELISA binding assay of VEGF to soluble receptor. The note with it: results not shown. Here is the method:
Competition between growth factors, their cell surface receptors and test compounds was assessed in an ELISA assay as described by. A 96-well plate was coated overnight with 2 μg/ml of the soluble receptors (FGFR-1 or -2 and VEGFR-1 or -2) and blocked with 1% BSA in PBS containing 0.05% Tween-20. The test compound and FGF-2 or VEGF were pre-mixed for 2 h and added to the plate and incubated for 2 h. The plate was washed (× 3 with PBS-Tween-20) and incubated with anti-FGF-2 IgG (1:500 in PBS-Tween-20) or anti-VEGF IgG (!:250 in PBS-Tween-20) for 45 min, washed and incubated with horseradish peroxidase conjugated goat anti-IgG (Santa Cruz, 1:1000) for a further 45 min. After washing (× 3), ABTS peroxidase substrate was added and the absorbance read at 405 nm. IC50 values were calculated from the data using the EZ-Fit enzyme kinetic software (Perella Scientific Inc., Amherst, USA).
In general terms: ELISA stands for enzyme-linked immunosorbent assay.

Data on 1 compound can be found in article PMC2678990, “Stilbene glycosides are natural product inhibitors of FGF-2-induced angiogenesis” (BMC Cell Biology, 2009).

With `COc1cc(C=Cc2ccc(O)cc2)cc(OC2OC(COC3OC(C)C(O)C(O)C3O)C(O)C(O)C2OC2OC(C)C(O)C(O)C2O)c1` (centres unmarked) [Compound 1], the “Effect on growth in the absence of growth factors” value in series [1] (1.4–71.5 μM) and in [2] (1.4–71.5 μM) was “no significant effect” throughout. Further, the IC50 (in general, the concentration needed to halve the response being measured) in series [1] (Bos taurus, NS = overall inhibition less than 50%) was above 71.5 µM; in [2] (Homo sapiens, Endothelial cell, NS = overall inhibition less than 50%), above 71.5 µM; in the series on HDMEC [3] (Homo sapiens), above 71.5 µM; in the series on BAEC [4] it was 48.9 ± 0.4 µM; with HDMEC [5] it was 42 ± 0.93 µM; in the series with BAEC [6], 30.1 ± 0.85 µM. The results for the IC50 in the series on HDMEC [7], in the series with HDMEC [8] and in the series on BAEC [9] were 21.5 ± 0.6 µM, 5.8 ± 0.18 µM and 40 ± 0.2 µM, respectively. In addition, the “EGF-induced proliferation, IC50” value in the series with HDMEC [3] is recorded as “no significant inhibitory effect”. Besides, the Cytotoxic effect result in the series with HDMEC [10] is recorded as “no significant cytotoxic effect”. The “Effect on binding to the VEGF receptor” value with VEGF receptor was “did not bind”.
